Reference: article PMC6201879, “N-substituted phenylbenzamides of the niclosamide chemotype attenuate obesity related changes in high fat diet fed mice” (PLoS ONE, 2018)
Read-outs that look alike come from different tables or passages of the source.

Columns and labels:
[1] = test system: phospho-AMPK Thr-172 (p-AMPK); test: Western blot of phospho-AMPK Thr-172 in HEK293T cells; type: cell-based, human; conditions: 1 and 10μM, negatives re-screened at 5 and 20 μM, 3 hours
Protocol: AMPK is a metabolic sensor that maintains cellular energy supply. As validation of these changes in lipid metabolism and cellular respiration we evaluated phospho-AMPK Thr-172 (p-AMPK) levels by Western blot in HEK293 cells treated with the phenylbenzamide derivatives. Compounds were screened at 1 and 10μM using the known uncouplers niclosamide and FCCP as positive controls (Fig 4A). […] We concluded that compounds that had little effect on oxygen consumption rates also had little effect on phosphorylation of AMPK.

[2] = test system: Salmonella typhimurium TA1535; conditions: for Mean Revertant Colony Counts TA-1535 SP9+: with S9; for Mean Revertant Colony Counts TA-1535 S9-: without S9
[3] = test system: Escherichia coli WP2 uvrA (pKM101); test: Ames assay, strain WP2 uvrA (pKM101); conditions: for Mean Revertant Colony Counts WP2 uvrA (pKM101) SP9+: with S9; for Mean Revertant Colony Counts WP2 uvrA (pKM101) S9-: without S9
[4] = any concentration tested, vs negative control

CC(C)(C)c1ccc(O)c(C(=O)Nc2ccc(C(=O)O)cc2C(F)(F)F)c1 [Compound 500873, 4-[(5-tert-butyl-2-hydroxy)amido]-3-(trifluoromethyl)benzoic acid]
phosphorylation of AMPK (p-AMPK Thr-172) by Western blot [1]: no detectable changes in pAMPK levels

CC(C)(C)c1cc(C(=O)Nc2ccc(C(=O)O)cc2Cl)c(O)c(C(C)(C)C)c1 [Compound 600453, 3-Chloro-4-[(3,5-di-tert-butyl-2-hydroxybenzene)amido]benzoic acid]
Mean Revertant Colony Counts TA-1535 SP9+ ([2]; 1.5 ug/Well): 2.7
Mean Revertant Colony Counts TA-1535 S9- ([2]; 1.5 ug/Well): 4.0
Mean Revertant Colony Counts TA-1535 SP9+ ([2]; 4 ug/Well): 3.7
Mean Revertant Colony Counts TA-1535 S9- ([2]; 4 ug/Well): 3.7
Mean Revertant Colony Counts TA-1535 SP9+ ([2]; 10 ug/Well): 2.7
Mean Revertant Colony Counts TA-1535 S9- ([2]; 10 ug/Well): 1.7
Mean Revertant Colony Counts TA-1535 SP9+ ([2]; 25 ug/Well): 2.3
Mean Revertant Colony Counts TA-1535 S9- ([2]; 25 ug/Well): 2.7
Mean Revertant Colony Counts TA-1535 SP9+ ([2]; 64 ug/Well): 3.0
Mean Revertant Colony Counts TA-1535 S9- ([2]; 64 ug/Well): 1.7
Mean Revertant Colony Counts TA-1535 SP9+ ([2]; 160 ug/Well): 3.3
Mean Revertant Colony Counts TA-1535 S9- ([2]; 160 ug/Well): 4.0
Mean Revertant Colony Counts TA-1535 SP9+ ([2]; 400 ug/Well): 2.0
Mean Revertant Colony Counts TA-1535 S9- ([2]; 400 ug/Well): 2.7
Mean Revertant Colony Counts TA-1535 SP9+ ([2]; 1000 ug/Well): 2.0
Mean Revertant Colony Counts TA-1535 S9- ([2]; 1000 ug/Well): 2.7
fold increase in the mean number of revertant colonies, TA1535 [2, 4]: < 3 fold
Mean Revertant Colony Counts WP2 uvrA (pKM101) SP9+ ([3]; 1.5 ug/Well): 36.0
Mean Revertant Colony Counts WP2 uvrA (pKM101) S9- ([3]; 1.5 ug/Well): 31.7
Mean Revertant Colony Counts WP2 uvrA (pKM101) SP9+ ([3]; 4 ug/Well): 35.0
Mean Revertant Colony Counts WP2 uvrA (pKM101) S9- ([3]; 4 ug/Well): 20.7
Mean Revertant Colony Counts WP2 uvrA (pKM101) SP9+ ([3]; 10 ug/Well): 31.7
Mean Revertant Colony Counts WP2 uvrA (pKM101) S9- ([3]; 10 ug/Well): 29.3
Mean Revertant Colony Counts WP2 uvrA (pKM101) SP9+ ([3]; 25 ug/Well): 33.3
Mean Revertant Colony Counts WP2 uvrA (pKM101) S9- ([3]; 25 ug/Well): 15.7
Mean Revertant Colony Counts WP2 uvrA (pKM101) SP9+ ([3]; 64 ug/Well): 28.0
Mean Revertant Colony Counts WP2 uvrA (pKM101) S9- ([3]; 64 ug/Well): 23.0
Mean Revertant Colony Counts WP2 uvrA (pKM101) SP9+ ([3]; 160 ug/Well): 23.0
Mean Revertant Colony Counts WP2 uvrA (pKM101) S9- ([3]; 160 ug/Well): 20.0
Mean Revertant Colony Counts WP2 uvrA (pKM101) SP9+ ([3]; 400 ug/Well): 15.3
Mean Revertant Colony Counts WP2 uvrA (pKM101) S9- ([3]; 400 ug/Well): 9.0
Mean Revertant Colony Counts WP2 uvrA (pKM101) SP9+ ([3]; 1000 ug/Well): 9.0
Mean Revertant Colony Counts WP2 uvrA (pKM101) S9- ([3]; 1000 ug/Well): 3.7
fold increase in the mean number of revertant colonies, WP2 uvrA (pKM101) [3, 4]: < 2 fold
